The NIST ThermoML archive (doi:10.1016/j.jct.2013.01.006)

Conditions: Liquid, Vibrating tube method

F/C=C/C(F)(F)F [trans-1,3,3,3-tetrafluoropropene]
Conditions | mass density [kg/m3]
283.55 K, 99990 kPa | 1403.02
283.56 K, 30000 kPa | 1295.8
283.56 K, 40000 kPa | 1316.15
283.56 K, 50000 kPa | 1334.15
283.56 K, 60000 kPa | 1350.35
283.56 K, 69990 kPa | 1365.2
283.56 K, 79990 kPa | 1378.71
283.56 K, 90000 kPa | 1391.26
283.57 K, 1000 kPa | 1211.68
283.57 K, 3000 kPa | 1219.58
283.57 K, 5000 kPa | 1227.04
283.57 K, 10000 kPa | 1243.89
283.57 K, 15000 kPa | 1258.79
283.57 K, 20000 kPa | 1272.23
283.57 K, 25000 kPa | 1284.48
293.41 K, 1000 kPa | 1180.6
293.41 K, 3000 kPa | 1189.81
293.41 K, 5000 kPa | 1198.39
293.41 K, 10000 kPa | 1217.4
293.41 K, 15000 kPa | 1234.07
293.41 K, 20000 kPa | 1248.82
293.41 K, 25000 kPa | 1262.23
293.41 K, 30000 kPa | 1274.5
293.41 K, 40000 kPa | 1296.38
293.41 K, 50000 kPa | 1315.5
293.41 K, 60000 kPa | 1332.69
293.41 K, 69990 kPa | 1348.45
293.41 K, 79990 kPa | 1362.63
293.41 K, 100010 kPa | 1387.95
293.42 K, 90000 kPa | 1375.74
303.38 K, 1000 kPa | 1149.74
303.38 K, 3000 kPa | 1160.58
303.39 K, 5000 kPa | 1170.47
303.39 K, 10000 kPa | 1192.27
303.39 K, 15000 kPa | 1210.87
303.39 K, 20000 kPa | 1227.2
303.39 K, 25000 kPa | 1241.85
303.39 K, 30000 kPa | 1255.15
303.39 K, 40000 kPa | 1278.68
303.39 K, 60000 kPa | 1317.3
303.4 K, 50000 kPa | 1299.13
303.4 K, 70000 kPa | 1333.74
303.4 K, 80010 kPa | 1348.59
303.4 K, 90000 kPa | 1362.33
303.4 K, 100000 kPa | 1375.04
313.33 K, 1000 kPa | 1112.39
313.33 K, 3000 kPa | 1125.51
313.34 K, 5000 kPa | 1137.25
313.34 K, 10000 kPa | 1162.32
313.35 K, 15000 kPa | 1183.22
313.35 K, 20000 kPa | 1201.24
313.35 K, 25000 kPa | 1217.24
313.36 K, 30000 kPa | 1231.65
313.36 K, 40000 kPa | 1256.89
313.36 K, 80000 kPa | 1330.76
313.36 K, 90000 kPa | 1345.06
313.36 K, 99990 kPa | 1358.3
313.37 K, 50000 kPa | 1278.66
313.37 K, 60000 kPa | 1297.92
313.37 K, 69990 kPa | 1315.13
323.14 K, 1000 kPa | 1074.03
323.15 K, 3000 kPa | 1090.3
323.15 K, 5000 kPa | 1104.41
323.15 K, 10000 kPa | 1133.63
323.15 K, 15000 kPa | 1157.19
323.15 K, 20000 kPa | 1177.23
323.15 K, 25000 kPa | 1194.71
323.15 K, 30000 kPa | 1210.33
323.15 K, 40000 kPa | 1237.43
323.15 K, 50000 kPa | 1260.55
323.15 K, 60000 kPa | 1280.78
323.15 K, 69990 kPa | 1299.16
323.15 K, 80000 kPa | 1315.46
323.15 K, 90000 kPa | 1330.39
323.15 K, 100000 kPa | 1344.16
333.06 K, 3000 kPa | 1051.57
333.06 K, 5000 kPa | 1068.99
333.07 K, 10000 kPa | 1103.45
333.07 K, 15000 kPa | 1130.26
333.07 K, 20000 kPa | 1152.47
333.07 K, 25000 kPa | 1171.67
333.08 K, 30000 kPa | 1188.58
333.08 K, 40000 kPa | 1217.68
333.08 K, 50000 kPa | 1242.22
333.09 K, 60000 kPa | 1263.59
333.09 K, 70000 kPa | 1282.87
333.1 K, 79990 kPa | 1299.88
333.1 K, 89990 kPa | 1315.41
333.1 K, 99990 kPa | 1329.71
343.06 K, 3000 kPa | 1007.98
343.07 K, 5000 kPa | 1030.29
343.07 K, 10000 kPa | 1071.6
343.07 K, 15000 kPa | 1102.25
343.07 K, 20000 kPa | 1127.03
343.07 K, 25000 kPa | 1148.05
343.07 K, 30000 kPa | 1166.47
343.07 K, 40000 kPa | 1197.69
343.07 K, 50000 kPa | 1223.79
343.07 K, 60000 kPa | 1246.3
343.07 K, 70000 kPa | 1266.4
343.08 K, 79990 kPa | 1284.18
343.08 K, 90000 kPa | 1300.35
343.08 K, 100000 kPa | 1315.2
352.97 K, 3000 kPa | 957.49
352.97 K, 60000 kPa | 1229.3
352.97 K, 70000 kPa | 1250.62
352.97 K, 79990 kPa | 1269.19
352.97 K, 89990 kPa | 1285.98
352.97 K, 99990 kPa | 1301.43
352.98 K, 5000 kPa | 987.78
352.98 K, 15000 kPa | 1073.64
352.98 K, 20000 kPa | 1101.36
352.98 K, 25000 kPa | 1124.45
352.98 K, 30000 kPa | 1144.41
352.98 K, 40000 kPa | 1177.85
352.98 K, 50000 kPa | 1205.56
352.99 K, 10000 kPa | 1038.43
362.93 K, 3000 kPa | 894.35
362.93 K, 5000 kPa | 939.3
362.94 K, 10000 kPa | 1003.24
362.94 K, 15000 kPa | 1044.15
362.94 K, 20000 kPa | 1075.24
362.94 K, 25000 kPa | 1100.62
362.94 K, 30000 kPa | 1122.31
362.95 K, 40000 kPa | 1158.16
362.95 K, 50000 kPa | 1187.53
362.95 K, 60000 kPa | 1212.48
362.95 K, 70010 kPa | 1234.72
362.95 K, 80000 kPa | 1254.07
362.96 K, 90000 kPa | 1271.47
362.96 K, 99990 kPa | 1287.46

FCC(F)(F)F [1,1,1,2-tetrafluoroethane]
Conditions | mass density [kg/m3]
283.52 K, 1010 kPa | 1262.83
283.53 K, 5000 kPa | 1279.7
283.54 K, 10000 kPa | 1298.2
283.54 K, 20000 kPa | 1329.16
283.54 K, 39990 kPa | 1376.78
283.54 K, 60010 kPa | 1413.66
283.54 K, 80020 kPa | 1444.29
303.26 K, 1000 kPa | 1188.74
303.27 K, 5000 kPa | 1212.6
303.28 K, 10000 kPa | 1237.15
303.29 K, 19980 kPa | 1275.91
303.29 K, 40010 kPa | 1332.33
303.3 K, 60000 kPa | 1374.15
303.3 K, 79980 kPa | 1408.2
323.07 K, 1280 kPa | 1102.44
323.08 K, 5000 kPa | 1136.68
323.08 K, 10000 kPa | 1170.98
323.09 K, 20000 kPa | 1220.67
323.11 K, 60000 kPa | 1335.02
323.11 K, 80000 kPa | 1372.84
323.12 K, 40000 kPa | 1287.6
343.02 K, 10000 kPa | 1097
343.02 K, 20000 kPa | 1162.16
343.02 K, 39990 kPa | 1241.93
343.02 K, 60010 kPa | 1295.73
343.03 K, 4990 kPa | 1045.24
343.03 K, 80010 kPa | 1337.58
343.05 K, 2090 kPa | 997.14
362.95 K, 5000 kPa | 921.91
362.95 K, 10000 kPa | 1012.79
362.96 K, 20000 kPa | 1101.23
362.97 K, 40000 kPa | 1196.59
362.98 K, 60000 kPa | 1257.2
362.99 K, 80000 kPa | 1302.95
